Laboratory results: patent US20020037328A1, “Hexitol compositions and uses thereof” (priority 2000, published 2002)

System: murine fibrosarcomas (RIF-1 cells)
Test: Tumor growth delay (tumor volume quadrupling time) of RIF-1 fibrosarcomas in C3H mice
Format: in vivo
Conditions: Dianhydrogalactitol 10 mg/kg, Cisplatin 4 mg/kg; for Delay (median TVQT of treated group minus control group) / TVQT/CTVQT (ratio of TVQT of treated tumor over untreated control) / Median (TVQT): RIF-1 tumors in C3H mice, i.p., combination 10 → 4 mg/kg (30 min apart); for TVQT/CTVQT (ratio of TVQT of treated tumor over untreated control): control 1.0; for Median (TVQT): control 6.3; for Mean TVQT ± S.E. (tumor volume quadrupling time): RIF-1 tumors intradermal in female C3H mice, single i.p. injection, combination 10 → 4 mg/kg (cisplatin 30 min after dianhydrogalactitol), 4 mice per group, untreated control 6.3 ± 0.3
Procedure: Transplantable experimental murine fibrosarcomas (2×10^5 RIF-1 cells) were grown intradermally in the flanks of 3 month old female C3H mice (Charles River, Hollister, Calif.). When the tumors reached a volume of approximately 100 mm^3, the mice were randomly assigned to each experimental group (4 mice per group).
The experimental compositions were prepared as described in Table 1.
Dianhydrogalactitol was obtained from NCI and was made to the appropriate concentration in DMSO. Cisplatin (David Bull Laboratories- Mulgrave, Australia, lot. 5201844x) was made to the appropriate concentration in water for injection. The compositions were injected systemically (i.e., intraperitoneally, i.p.), in a volume of 100 microliters. For the treatment of group 3, dianhydrogalactitol, was injected 30 minutes prior to the injection of cisplatin. After treatment, the growth of the tumors was monitored three times per week by caliper measurements of three perpendicular diameters of the tumor and calculation of tumor volume from the formula: […]
where D1-3 are the diameters in mm of the three perpendicular axes.
The tumors were followed until they reached a size of four times their day zero treatment volume (TVQT), or up to 30 days after treatment, whichever came first. The data is expressed as the “tumor volume quadrupling time” (TVQT) mean and as the “delay.” Mean TVQT is the mean days required for individual tumors to grow to four times the tumor volume at the initial treatment day. The “delay” is the median of days required for a tumor to grow to four times the mean size of the treated group, minus the median of days required to grow to four times the mean size of the control group. The data is also expressed as the ratio of the tumor volume quadrupling time of the treated tumor over the untreated control group (TVQT/CTVQT). Increasing values of this ratio indicate increased antitumor response.

SMILES | Delay (median TVQT of treated group minus control group) [days] | TVQT/CTVQT (ratio of TVQT of treated tumor over untreated control) | Median (TVQT) [days] | Mean TVQT ± S.E. (tumor volume quadrupling time) [days]
N.N.[Cl][Pt][Cl] [Cisplatin, cis-diamminedichloroplatinum II] | 1.45 | 1.2 | 7.7 | 7.4 ± 0.3
OC(C1CO1)C(O)C1CO1 (centres unmarked) [Dianhydrogalactitol, 1,2:5,6-Dianhydrogalactitol] | 5.12 | 1.7 | 11.4 | 10.9 ± 0.8
